pIC50: −log10 of the molar value.

Assay [1] deals with T1, progesterone receptor (PR) (Homo sapiens, UniProt P06401).
T1 construct: made in house
T1 sequence (P06401 1-933): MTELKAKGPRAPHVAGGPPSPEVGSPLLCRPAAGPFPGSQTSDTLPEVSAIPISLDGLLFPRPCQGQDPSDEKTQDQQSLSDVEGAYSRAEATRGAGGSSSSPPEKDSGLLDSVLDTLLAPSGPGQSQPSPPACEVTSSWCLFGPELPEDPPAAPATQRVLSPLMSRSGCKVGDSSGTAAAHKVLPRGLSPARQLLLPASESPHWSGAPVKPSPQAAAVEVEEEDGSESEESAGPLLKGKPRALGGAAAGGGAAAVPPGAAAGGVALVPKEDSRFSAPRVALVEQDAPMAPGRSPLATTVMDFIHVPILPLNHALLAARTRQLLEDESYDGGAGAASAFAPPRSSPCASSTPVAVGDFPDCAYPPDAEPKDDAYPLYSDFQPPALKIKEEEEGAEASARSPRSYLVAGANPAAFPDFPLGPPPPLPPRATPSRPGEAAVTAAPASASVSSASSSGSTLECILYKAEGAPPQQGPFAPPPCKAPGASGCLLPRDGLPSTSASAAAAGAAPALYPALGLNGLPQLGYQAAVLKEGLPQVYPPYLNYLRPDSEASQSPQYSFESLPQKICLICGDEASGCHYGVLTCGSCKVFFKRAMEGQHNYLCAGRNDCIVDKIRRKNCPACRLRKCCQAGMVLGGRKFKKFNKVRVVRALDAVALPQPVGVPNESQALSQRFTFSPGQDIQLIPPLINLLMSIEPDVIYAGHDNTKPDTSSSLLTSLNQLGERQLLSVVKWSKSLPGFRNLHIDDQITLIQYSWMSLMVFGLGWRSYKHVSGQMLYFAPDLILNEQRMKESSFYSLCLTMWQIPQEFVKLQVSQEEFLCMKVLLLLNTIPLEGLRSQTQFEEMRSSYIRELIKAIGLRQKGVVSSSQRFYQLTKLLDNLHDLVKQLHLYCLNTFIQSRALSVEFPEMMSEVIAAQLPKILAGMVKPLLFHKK
Description: Binding to the progesterone receptor, recombinantly produced receptor. From the text: (§1) The binding of the substances to the glucocorticoid receptor (GR) and other steroid-hormone receptors (mineral corticoid receptor (MR), progesterone receptor (PR) and androgen receptor (AR)) is examined with the aid of recombinantly produced receptors. Cytosol preparations of Sf9 cells, which had been infected with recombinant baculoviruses that code for the GR, are used for the binding studies. In comparison to the reference substance [^3H]-dexamethasone, the substances show a high affinity to the GR.

Assay [2] concerns cytokine IL-8 secretion, human monocyte cell line THP-1. Briefly: Inhibition of LPS-triggered IL-8 secretion in THP-1 cells (ELISA). In kind it is cell-based. The method, then: The concentration of the cytokines was determined in the supernatant by means of commercially available ELISA kits.
For assay [3], the target named is T2, glucocorticoid receptor (GR) (Homo sapiens, UniProt P04150).
T2 construct: made in house; host or cells: Sf9 cells infected with recombinant baculovirus (cytosol preparation)
T2 sequence (P04150 1-777): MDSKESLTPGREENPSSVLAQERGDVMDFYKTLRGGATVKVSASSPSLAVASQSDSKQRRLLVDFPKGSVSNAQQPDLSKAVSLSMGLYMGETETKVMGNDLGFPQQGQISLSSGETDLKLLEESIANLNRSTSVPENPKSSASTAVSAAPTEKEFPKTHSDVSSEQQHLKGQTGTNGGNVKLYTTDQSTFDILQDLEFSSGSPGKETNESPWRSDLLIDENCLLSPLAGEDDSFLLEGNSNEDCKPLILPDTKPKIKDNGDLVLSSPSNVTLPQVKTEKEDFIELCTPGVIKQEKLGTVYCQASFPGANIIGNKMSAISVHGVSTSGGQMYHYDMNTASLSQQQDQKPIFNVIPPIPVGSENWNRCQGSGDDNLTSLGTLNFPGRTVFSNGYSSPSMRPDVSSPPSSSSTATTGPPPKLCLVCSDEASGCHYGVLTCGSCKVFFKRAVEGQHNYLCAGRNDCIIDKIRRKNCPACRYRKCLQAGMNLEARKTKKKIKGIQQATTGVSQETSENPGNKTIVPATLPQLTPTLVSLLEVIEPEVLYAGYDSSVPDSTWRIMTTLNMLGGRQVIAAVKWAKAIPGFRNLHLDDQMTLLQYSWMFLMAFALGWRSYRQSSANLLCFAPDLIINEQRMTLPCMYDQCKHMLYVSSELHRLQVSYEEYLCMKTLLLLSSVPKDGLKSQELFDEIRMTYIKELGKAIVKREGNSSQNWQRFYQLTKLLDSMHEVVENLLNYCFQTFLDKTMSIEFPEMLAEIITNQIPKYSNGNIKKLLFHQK
Briefly: Binding to the glucocorticoid receptor, recombinant receptor in Sf9 cytosol, vs [3H]-dexamethasone. The note with it: cytosol of Sf9 cells, [3H]-dexamethasone as reference.
From the text: as §1

As for `Cc1ncc2c(NC3c4ccc(F)c(O)c4C(C)C(C)C3(O)C(F)(F)F)cc(F)cc2n1` (racemic) [Example 3, 2-Fluoro-5-[(7-fluoro-2-methylquinazolin-5-yl)amino]-5,6,7,8-tetrahydro-7,8-dimethyl-6-(trifluoromethyl)naphthalene-1,6-diol], the pIC50 is below 6.00 in assay [1]; 6.89 in assay [2] (Homo sapiens, LPS-triggered IL-8 secretion, THP-1, ELISA of supernatant, read-out: IC50(IL8)); 7.44 in assay [3]. The “efficiency relative to [3H]-dexamethasone as a standard” value in assay [2] (IL-8 inhibition, THP-1, LPS) stood at 80%.

Source of the values: patent US20060229305A1, “Tetrahydronaphthalene derivatives, process for their production and their use as anti-inflammatory agents” (priority 2005, published 2006).
